# Reference: ChEMBL document CHEMBL1140826, “Synthesis of benzamide derivatives as TRPV1 antagonists” (Bioorg Med Chem Lett, 2008)
# pIC50: −log10 of the molar value. Where “and” joins values, the source holds several entries; their conditions need not be identical. Equal entries are not always repeated.
# Target: Transient receptor potential cation channel subfamily V member 1 (Rattus norvegicus, UniProt O35433)
# Assay: Antagonist activity at rat TRPV1 assessed as inhibition of capsaicin-induced calcium mobilization
# Assay type: functional
# Conditions: not given
# Transient receptor potential cation channel subfamily V member 1 (Rattus norvegicus, UniProt O35433), sequence (O35433 whole entry): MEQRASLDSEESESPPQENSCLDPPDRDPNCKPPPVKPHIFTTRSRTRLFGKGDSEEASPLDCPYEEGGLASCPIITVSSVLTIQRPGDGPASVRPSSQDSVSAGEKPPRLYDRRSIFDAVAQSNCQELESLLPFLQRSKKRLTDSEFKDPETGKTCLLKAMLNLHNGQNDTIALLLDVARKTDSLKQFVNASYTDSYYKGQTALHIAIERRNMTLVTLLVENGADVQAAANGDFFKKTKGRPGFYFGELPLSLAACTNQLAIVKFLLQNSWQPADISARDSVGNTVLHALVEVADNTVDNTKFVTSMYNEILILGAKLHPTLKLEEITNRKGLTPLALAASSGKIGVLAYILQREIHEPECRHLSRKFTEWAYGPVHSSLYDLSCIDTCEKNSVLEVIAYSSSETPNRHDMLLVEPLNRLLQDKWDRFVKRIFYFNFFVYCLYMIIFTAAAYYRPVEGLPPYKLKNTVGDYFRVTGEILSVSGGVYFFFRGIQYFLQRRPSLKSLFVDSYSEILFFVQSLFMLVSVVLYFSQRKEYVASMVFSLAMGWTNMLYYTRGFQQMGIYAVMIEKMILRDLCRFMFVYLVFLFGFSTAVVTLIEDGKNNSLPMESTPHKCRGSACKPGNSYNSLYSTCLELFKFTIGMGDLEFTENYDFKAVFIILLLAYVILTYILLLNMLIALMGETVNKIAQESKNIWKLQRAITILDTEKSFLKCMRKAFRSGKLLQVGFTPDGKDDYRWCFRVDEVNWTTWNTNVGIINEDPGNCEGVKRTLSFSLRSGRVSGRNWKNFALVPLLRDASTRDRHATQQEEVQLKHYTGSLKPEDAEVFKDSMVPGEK
row,SMILES,pIC50
1,Cn1c2c(c3cc(O)ccc31)C(CNC(=O)c1ccc(OC(F)(F)F)cc1)CCC2 (centres undefined),6.39
2,COc1ccc2[nH]cc(C(C)CNC(=O)c3ccc(OC(F)(F)F)cc3)c2c1 (centres undefined),5.28
3,CC(CNC(=O)c1ccc(OC(F)(F)F)cc1)c1ccc(O)c2ccc(O)cc12 (racemic),7.36
4,CC(C)(C)c1ccc(NC(=O)c2ccc(OC(F)(F)C(F)F)cc2)cc1,6.59

# Target: Transient receptor potential cation channel subfamily V member 1 (Homo sapiens, UniProt Q8NER1)
# Sequence (Q8NER1 whole entry): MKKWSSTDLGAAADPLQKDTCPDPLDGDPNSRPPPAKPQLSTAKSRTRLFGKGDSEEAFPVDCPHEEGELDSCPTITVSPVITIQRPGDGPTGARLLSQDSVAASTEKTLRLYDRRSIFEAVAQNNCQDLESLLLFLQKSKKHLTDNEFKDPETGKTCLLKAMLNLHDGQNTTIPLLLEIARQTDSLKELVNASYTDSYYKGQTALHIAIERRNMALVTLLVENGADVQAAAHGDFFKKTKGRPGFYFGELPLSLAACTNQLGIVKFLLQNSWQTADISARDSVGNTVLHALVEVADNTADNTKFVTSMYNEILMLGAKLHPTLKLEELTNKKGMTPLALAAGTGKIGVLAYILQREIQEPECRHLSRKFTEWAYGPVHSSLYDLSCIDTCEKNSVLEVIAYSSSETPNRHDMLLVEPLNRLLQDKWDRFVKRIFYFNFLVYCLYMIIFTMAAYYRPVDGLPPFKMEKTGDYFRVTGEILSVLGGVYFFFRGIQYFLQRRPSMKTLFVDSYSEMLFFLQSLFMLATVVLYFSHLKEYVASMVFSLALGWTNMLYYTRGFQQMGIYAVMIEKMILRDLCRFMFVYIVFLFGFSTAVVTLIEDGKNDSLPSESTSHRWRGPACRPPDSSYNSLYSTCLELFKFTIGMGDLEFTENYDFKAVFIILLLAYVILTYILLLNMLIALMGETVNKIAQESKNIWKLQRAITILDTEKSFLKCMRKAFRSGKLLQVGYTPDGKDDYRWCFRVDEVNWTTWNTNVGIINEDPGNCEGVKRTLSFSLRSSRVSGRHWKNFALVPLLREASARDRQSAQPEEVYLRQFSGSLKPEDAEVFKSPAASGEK
# Assay: Antagonist activity at human TRPV1 assessed as inhibition of capsaicin-induced calcium influx in HEK293 cells
# Assay type: functional, cell-based
# Conditions: not given
row,SMILES,pIC50
1,COc1ccc2[nH]c(C)c(C(C)CNC(=O)c3ccc(OC(F)(F)F)cc3)c2c1 (centres undefined),5.29
2,O=C(Nc1ccc(C2CCCCC2)cc1)c1ccc(OC(F)(F)F)cc1,< 5.00
3,O=C(NCCc1ccnc2ccccc12)c1ccc(OC(F)(F)F)cc1,< 5.00
4,COc1ccc2[nH]cc(CCNC(=O)c3ccc(-c4ccncc4)cc3)c2c1,< 5.00
5,O=C(NCCc1c[nH]c2ccccc12)c1ccc(C(F)(F)F)cc1,5.37
6,O=C(NCCN1CCCc2ccccc21)c1ccc(OC(F)(F)F)cc1,5.34
7,COc1ccc2c(OC)ccc(CCNC(=O)c3ccc(OC(F)(F)F)cc3)c2c1,< 5.00
8,O=C(NCCc1c[nH]c2ccc(Cl)cc12)c1ccc(OC(F)(F)F)cc1,5.43
9,COc1ccc2nccc(CCNC(=O)c3ccc(OC(F)(F)F)cc3)c2c1,< 5.00
10,CC(C)(C)c1ccc(-n2nnc(-c3ccc(C(F)(F)F)cc3)n2)cc1,< 5.00
11,O=C(Nc1ccc(C(F)(F)F)cc1)c1ccc(OC(F)(F)F)cc1,6.66
12,CC(C)(C)C1CCC(c2nc3ccc(OC(F)(F)F)cc3[nH]2)CC1 (centres undefined),5.30
13,O=C(Nc1ccc2c(c1)CCC2)c1ccc(OC(F)(F)F)cc1,6.68
14,O=C(Nc1ccc(I)cc1)Nc1ccc(C(F)(F)F)cc1,< 5.00
15,O=C(Nc1ccc(I)cc1)c1ccc(C(F)(F)F)cc1,6.48
16,Cn1c2c(c3cc(O)ccc31)C(CNC(=O)c1ccc(OC(F)(F)F)cc1)CCC2 (centres undefined),7.64
17,O=C(NCCN1CCCc2ccc(O)cc21)c1ccc(OC(F)(F)F)cc1,6.02
18,O=C(NCCc1ccccc1F)c1ccc(OC(F)(F)F)cc1,5.46
19,CC(C)(C)c1ccc(C(N)C(=O)c2ccc(OC(F)(F)F)cc2)cc1 (centres undefined),< 5.00
20,CC(C)(C)c1ccc(-c2nc3cc(OC(F)(F)F)ccc3[nH]2)cc1,5.85
21,CC(C)(C)c1ccc2[nH]cc(CCNC(=O)c3ccc(OC(F)(F)F)cc3)c2c1,< 5.00

row,SMILES,pIC50
1,O=C(NCCc1c[nH]c2ccc(O)cc12)c1ccc(OC(F)(F)F)cc1,5.76
2,O=C(NCCc1cccc(Cl)c1)c1ccc(OC(F)(F)F)cc1,< 5.00 and 5.71
3,CC(C)(C)c1ccc(/C=C(\C#N)c2ccc(C(F)(F)F)cc2)cc1,< 5.00
4,COc1ccc2c(c1)C(CCNC(=O)c1ccc(OC(F)(F)F)cc1)CCC2 (centres undefined),5.33
5,COc1ccc2c(c1)N(CCNC(=O)c1ccc(OC(F)(F)F)cc1)CCC2,< 5.00
6,O=C(NCCc1c(Cl)cccc1Cl)c1ccc(OC(F)(F)F)cc1,6.69
7,O=C(NCCC1CCCc2ccccc21)c1ccc(OC(F)(F)F)cc1 (centres undefined),5.27
8,COc1ccc2[nH]cc(CCNC(=O)c3ccc(OC(F)(F)F)cc3)c2c1,5.88
9,O=C(NCCc1ccc(Cl)c(Cl)c1)c1ccc(OC(F)(F)F)cc1,5.43
10,COc1ccc2cccc(CC(C)NC(=O)c3ccc(OC(F)(F)F)cc3)c2c1 (centres undefined),5.51
11,COc1ccc2nccc(CC(C)NC(=O)c3ccc(OC(F)(F)F)cc3)c2c1 (centres undefined),< 5.00
12,COc1ccc2[nH]cc(C(C)CNC(=O)c3ccc(OC(F)(F)F)cc3)c2c1 (centres undefined),6.40
13,CC(C)(C)c1ccc2[nH]c(-c3ccc(OC(F)(F)C(F)F)cc3)nc2c1,6.32
14,O=C(NCCn1ccc2ccccc21)c1ccc(OC(F)(F)F)cc1,5.14
15,FC(F)(F)c1ccc(-c2ncc(-c3ccc(Br)cc3)[nH]2)cc1,5.22
16,CCC(c1ccccn1)c1c(Cl)c(Cl)cc2[nH]c(=O)c(=O)[nH]c12 (centres undefined),5.85
17,CC(=O)c1ccc(C(=O)Nc2ccc(I)cc2)cc1,< 5.00
18,O=C(NCCc1cccc2ccc(O)cc12)c1ccc(OC(F)(F)F)cc1,6.82
19,O=C(NCCc1ccnc2ccc(O)cc12)c1ccc(OC(F)(F)F)cc1,5.91
20,CC(CNC(=O)c1ccc(OC(F)(F)F)cc1)c1ccc(O)c2ccc(O)cc12 (racemic),7.85
21,CC(C)(C)c1ccc(NC(=O)c2ccc(OC(F)(F)C(F)F)cc2)cc1,7.15

# Same assay, conditions: read-out: pA2 (converted)
row,SMILES,Kb
1,COc1ccc2[nH]cc(C(C)CNC(=O)c3ccc(OC(F)(F)F)cc3)c2c1 (centres undefined),145 nM

# System: not listed separately
# Assay: Oral bioavailability in rat administered through 0.1% MC solution
# Assay type: ADME, organism-based
# Conditions: in vivo
row,SMILES,bioavailability
1,Cn1c2c(c3cc(O)ccc31)C(CNC(=O)c1ccc(OC(F)(F)F)cc1)CCC2 (centres undefined),0.7%

# System: not listed separately
# Assay: Half life in iv dosed rat
# Assay type: ADME, organism-based
# Conditions: in vivo
row,SMILES,half-life
1,Cn1c2c(c3cc(O)ccc31)C(CNC(=O)c1ccc(OC(F)(F)F)cc1)CCC2 (centres undefined),2.1 h

# System: not listed separately
# Assay: Half life in po dosed rat administered through 0.1% MC solution
# Assay type: ADME, organism-based
# Conditions: in vivo
row,SMILES,half-life
1,Cn1c2c(c3cc(O)ccc31)C(CNC(=O)c1ccc(OC(F)(F)F)cc1)CCC2 (centres undefined),1.2 h

# System: not listed separately
# Assay: Half life in po dosed rat administered through PEG400
# Assay type: ADME, organism-based
# Conditions: in vivo
row,SMILES,half-life
1,Cn1c2c(c3cc(O)ccc31)C(CNC(=O)c1ccc(OC(F)(F)F)cc1)CCC2 (centres undefined),2.1 h

# Species: Mus musculus
# Assay: Effect on capsaicin-induced hypothermia in mouse
# Assay type: functional
# Conditions: not given
row,SMILES,ED50
1,CC(C)(C)c1ccc(NC(=O)c2ccc(OC(F)(F)C(F)F)cc2)cc1,4.5 mg/kg

# Species: Rattus norvegicus
# Assay: Effect on capsaicin-induced hypothermia in rat
# Assay type: functional
# Conditions: not given
row,SMILES,ED50
1,CC(C)(C)c1ccc(NC(=O)c2ccc(OC(F)(F)C(F)F)cc2)cc1,4.2 mg/kg

# System: Mus musculus
# Assay: Effect on carrageenan-induced thermal hyperalgesia in mouse at 30 mg/kg, ip
# Assay type: functional
# Conditions: route intraperitoneal
row,SMILES,inhibition in vivo at 30 mg/kg
1,CC(C)(C)c1ccc(NC(=O)c2ccc(OC(F)(F)C(F)F)cc2)cc1,52%

# Species: Mus musculus
# Assay: Effect on capsaicin-induced licking in mouse
# Assay type: functional
# Conditions: not given
row,SMILES,ED50
1,CC(C)(C)c1ccc(NC(=O)c2ccc(OC(F)(F)C(F)F)cc2)cc1,3.8 mg/kg

# System: Mus musculus
# Assay: Reduction of rectal temperature in mouse CCI model at 100 mg/kg, ip
# Assay type: functional
# Conditions: route intraperitoneal
row,SMILES,inhibition in vivo at 100 mg/kg
1,CC(C)(C)c1ccc(NC(=O)c2ccc(OC(F)(F)C(F)F)cc2)cc1,59%

# System: Rattus norvegicus
# Assay: Reduction of rectal temperature in rat CCI model at 100 mg/kg, ip
# Assay type: functional
# Conditions: route intraperitoneal
row,SMILES,inhibition in vivo at 100 mg/kg
1,CC(C)(C)c1ccc(NC(=O)c2ccc(OC(F)(F)C(F)F)cc2)cc1,59%

# System: not listed separately
# Assay: Oral bioavailability in rat administered through PEG400
# Assay type: ADME, organism-based
# Conditions: in vivo
row,SMILES,bioavailability
1,Cn1c2c(c3cc(O)ccc31)C(CNC(=O)c1ccc(OC(F)(F)F)cc1)CCC2 (centres undefined),30.2%

# System: Rattus norvegicus
# Assay: Effect on carrageenan-induced thermal hyperalgesia in rat at 30 mg/kg, ip
# Assay type: functional
# Conditions: route intraperitoneal
row,SMILES,inhibition in vivo at 30 mg/kg
1,CC(C)(C)c1ccc(NC(=O)c2ccc(OC(F)(F)C(F)F)cc2)cc1,52%
